Data: patent publication US12161741B2, “Skin gel preparation for external use” (Shiseido Company, Ltd., priority 2018, dated 2024)

Assay: Solubility of the di-chain cationic surfactant (distearyldimonium chloride) in oils
Details: for Evaluation Result (state of the solution of distearyldimonium chloride in the oil): 1 g distearyldimonium chloride mixed and heated to dissolve in 100 g of oil, at rest 24 hours at ambient temperature; for Dissolution of the di-chain cationic surfactant in the oil (text summary of Table 1): 1 g in 100 g oil, 24 hours at ambient temperature

Compound | Evaluation Result (state of the solution of distearyldimonium chloride in the oil) | Dissolution of the di-chain cationic surfactant in the oil (text summary of Table 1)
CC(C)CCCCCCCCCCCCCCCOC(=O)CC(O)C(=O)OCCCCCCCCCCCCCCCC(C)C (centres unmarked) [Diisostearyl malate] | ○ | homogeneously dissolved
CCCCC(CC)COCC(O)CO (centres unmarked) [Ethylhexylglycerin] | ○ | homogeneously dissolved
CC(C)CCCCCCCCCCCCCCCO [Isostearyl alcohol] |  | homogeneously dissolved
CCCCCCCCCCC(CO)CCCCCCCC (centres unmarked) [Octyldodecanol] |  | homogeneously dissolved
Glyceryl diisostearate | ○ | homogeneously dissolved
